Measured values from patent US6958318B2, “Recombinant bacterial cells for delivery of PNP to tumor cells” (The UAB Research Foundation, priority 1993, dated 2005).
Values joined by “and” are separate entries in the source; they are usually repeats but may differ in a detail not shown here. Identical values can stand only once.

Key:
[1] = tested on: T-84 colon carcinoma cells; experiment: Toxicity of MeP and MeP-dR in untransfected T-84 cells; type: cell-based, human; settings: 5 days
Protocol: T-84 colon carcinoma cells were grown in Dulbecco's modified Eagle medium containing F12 nutrient medium (DMEM/F12) (GIBCO/BRL, Gaithersburg, Md.) in 6 well trays to a density of approximately […] (−20% confluency).
Untransfected T-84 colon carcinoma cells were treated with increasing concentrations of either MeP-dR or MeP. After 5 days the cells were removed from each well and the number of dye excluding cells were determined with the aid of a hemacytometer. Cells were studied both at passage 48 (p. 48) and passage 61 (p. 61). MeP was obtained from Sigma Chemical Company (St. Louis, Mo.). MeP-dR was synthesized by standard methods as described (J. A. Montgomery and K. Howson, J. Med. Chem., 11:48-52 (1968)). The nucleoside and base were dissolved in serum free DMEM/F12 at a concentration of 1 mg/ml and added directly to 1 ml DMEM/F12 with 10% fetal bovine serum at the concentrations described below in order to cover 1-2×10^5 cells/well.
Initial cytopathic effects due to MeP were observed within 24 hours (for example, rounding of cells, with some cells detaching from plate). Viable cells were counted 5 days following addition of drug. […] Trypan blue exclusion was used to confirm viability in cells retaining recognizable structure at all concentrations studied. […] If the toxicity of MeP-dR is due to very low levels of liberation of MeP by human PNP, then combination with selective inhibitors of human PNP could prevent this toxicity.

[2] = tested on: D54-PNP tumors; experiment: E. coli PNP-transduced D54 glioma tumors in nude mice; type: in vivo
Protocol: Female athymic nude mice (nu/nu) were implanted sc with 2×10^7 cells of either D54 parental tumor cells (D54-wt) or D54 tumor cells that had been transduced with the E. coli PNP (D54-PNP). After the tumors had grown to approximately 150 mg, they were treated ip with either vehicle or 67 mg/kg of MeP-dR (IP) once a day for 3 days (days 6, 7 and 8 after implantation). The tumor sizes were measured twice a week after treatment.
A confirmation experiment was set up exactly as described above, except that animals were treated with two doses of MeP-dR (45 and 67 mg/kg) (FIGS. 10 and 11). The results of this experiment were similar (Table V). There were 8 of 10 complete regressions in mice bearing the D54-PNP tumors that were treated with 67 mg/kg of MeP-dR. In 4 mice the tumors subsequently returned and grew. There were still 4 of 10 tumor-free survivors 60 days after the treatment had stopped. […] There were 2 of 10 complete regressions and 3 partial responses. […] The delay in the time required to double twice due to treatment with MeP-dR was 5 to 6 days in the non-transduced tumors and greater than 24 days in transduced tumors. In this experiment, the growth rate of the D54-PNP tumors was considerably slower than it was in the first experiment. There was no change in the growth rate of the D54-wt tumors. The reason for the slow growth rate of the D54-PNP tumors in this experiment is not known. […] (In other words, if a tumor was too small to measure, it was not included in the average size). This means that the overall tumor regressions in the D54 PNP group are actually much more pronounced than they appear in FIGS. 8-11.

[3] = literature; cited from earlier work

Cc1ncnc2c1ncn2[C@H]1C[C@H](O)[C@@H](CO)O1 [MeP-dR, 9-(β-D-2-deoxyerythropentofuranosyl)-6-methylpurine]
Toxicity to cells that were not transfected ([1]; 160 μM): minimally toxic | Cells killed ([1]; 200 and 400 μM): less than half of the cells were killed | Cell death ([1]; lower concentrations): did not cause any appreciable cell death | Loss of weight in treated animals ([2]; 67 mg/kg, regardless of tumor implanted): little or no loss of weight | Effect on E. coli PNP expressing D54 tumors, in words ([2]; 45 or 67 mg/kg): caused regression | Days Delay (T-C) ([2]; Table IV, 67 mg/kg): >39 days | Doubling time ([2]; Table IV, 67 mg/kg): >56 | Nonspecific Deaths/Total ([2]; Table IV, 67 mg/kg): 0/6 | Regressions Partial ([2]; Table IV, 67 mg/kg): 0/6 | Regressions Complete ([2]; Table IV, 67 mg/kg IP once a day for three days, 67 mg/kg): 6 of 6 and 6/6 | Tumor-free Survival ([2]; Table IV, 67 mg/kg, followed 65 days, 67 mg/kg): Four and 4/6 | Days Delay (T-C) ([2]; Table V, 45 mg/kg): >24 days | Doubling time ([2]; Table V, 45 mg/kg): >54 | Nonspecific Deaths/Total ([2]; Table V, 45 mg/kg): 0/10 | Regressions Partial ([2]; Table V, 45 mg/kg): 3 and 3/10 | Tumor-free Survival ([2]; Table V, 45 mg/kg): no tumor-free survivors and 0/10 | Regressions Complete ([2]; Table V, 45 mg/kg IP once a day for three days, 45 mg/kg): 2 of 10 and 2/10 | Days Delay (T-C) ([2]; Table V, 67 mg/kg): >25 days | Doubling time ([2]; Table V, 67 mg/kg): >55 | Nonspecific Deaths/Total ([2]; Table V, 67 mg/kg): 1/10 | Regressions Partial ([2]; Table V, 67 mg/kg): 1/10 | Regressions Complete ([2]; Table V, 67 mg/kg IP once a day for three days, 67 mg/kg): 8 of 10 and 8/10 | Tumor-free Survival ([2]; Table V, 67 mg/kg, 60 days after treatment stopped, 67 mg/kg): 4 of 10 and 4/10 | Activity against D54 glioma tumors expressing the E. coli PNP gene ([2]; previous studies): good activity | Delay in the time required to double twice ([2]; transduced tumors, 45 and 67 mg/kg): greater than 24 days | Toxicity of prodrug relative to its purine analog [3]: much less toxic than their respective purine analogs
